Assay results taken from PubChem BioAssay (NCI).
Several values for one entry are separate records, joined by “and”; a condition that tells them apart may be missing. Equal entries are not always repeated.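 Protocol summary: plate cells (96-well), add compound at 5 concentrations, incubate 48 h, interpolate endpoints linearly. GI50 marks 50% less growth. TGI is the concentration that stops growth completely.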 Numbered stars: 1 amine (or outer) side, 2 acyl side, 3 side chain; on linkers, the order of the positions; unused ones are H or OH. Bridge positions count the residues as written; N and C are the ends. Square brackets hold non-standard residues; d marks the D form. Peptide text beside a SMILES is read from it. I, II: the chains in the order shown. Actinocin(1to9) = Cc1c2oc3c(C)ccc(C(=O)[*:2])c3nc-2c(C(=O)[*:1])c(N)c1=O; NMeV = CN[CH](C(=O)O)C(C)C; Sar = CNCC(=O)O

Assays:
Experiment in all cases: DTP human tumour cell line panel, 48 h
A549 NSCLC = system: A549 NSCLC
EKVX NSCLC = system: EKVX NSCLC
HCT-116 colon = system: HCT-116 colon
MDA-N = system: MDA-N
NCI-H226 lung = system: NCI-H226 lung
NCI-H522 lung = system: NCI-H522 lung
NCI/ADR-RES ovarian = system: NCI/ADR-RES ovarian
RPMI-8226 leukemia = system: RPMI-8226 leukemia
T-47D breast = system: T-47D breast
SR leukemia = system: SR leukemia

Compound	TGI (A549 NSCLC) [µM]	TGI (EKVX NSCLC)	TGI (HCT-116 colon) [µM]	TGI (MDA-N) [µM]	TGI (NCI-H226 lung) [µM]	TGI (NCI-H522 lung) [µM]	TGI (NCI/ADR-RES ovarian) [µM]	TGI (RPMI-8226 leukemia) [µM]	TGI (T-47D breast) [µM]	TGI (SR leukemia) [µM]	GI50 (NCI/ADR-RES ovarian) [µM]	GI50 (EKVX NSCLC) [µM]	GI50 (NCI-H226 lung) [µM]	GI50 (RPMI-8226 leukemia) [µM]	GI50 (T-47D breast) [µM]	GI50 (A549 NSCLC) [µM]	GI50 (HCT-116 colon) [µM]	GI50 (NCI-H522 lung) [µM]	GI50 (SR leukemia) [µM]
CC(C)(C)OC(=O)CC(NC(=O)OC(C)(C)C)C(=O)Oc1ccc([N+](=O)[O-])cc1 (stereo not drawn)	> 100	> 100 µM	> 100	> 100	> 100	> 100	> 100	> 100	> 100										
O[C@H]1[C@@H]2OC[C@@H](O)[C@H](OCc3ccccc3)[C@@](COCc3ccccc3)(O2)[C@@H]1OCc1ccccc1	33.3	30.3 µM	47.5	29.4		27.7	32	31.9		> 100									
CC(=O)Oc1ccc2c3c1[C@@H]1O[C@@H]1c1cccc(c1-3)[C@@H]1O[C@H]21			2.87	3.32	84.2		3.76		5.42		1.4								
CCCC(=O)OC1=C(c2ccccc2)Sc2ccccc2-n2cccc21	> 10	> 10 µM		> 10				> 10	> 10	> 10									
Nc1ccc2c(c1)S(=O)(=O)c1cc(N)ccc1-2	> 100	> 100 µM	> 100	> 100	> 100	> 100	> 100		> 100										
CCOC(=O)C(C(=O)OCC)C(NC(=O)Nc1cc(C(F)(F)F)ccc1OC)(C(F)(F)F)C(F)(F)F	> 100	> 100 µM	> 100	> 100	72.4	55.9	75.9	56.8	> 100										
COc1cc2c(cc1O)N=C[C@@H]1CCC(O)N1C2=O (mixture of isomers)	71.6	5.99 µM	34		2.08	0.636	3.42	2.39											
O=C(CSCC(=O)N/N=C/c1ccncc1)N/N=C/c1ccncc1	> 100	> 100 µM	> 100		> 100	> 100	> 100	> 100	> 100										
C/C=C1/C(=O)O[C@]23C=C[C@@H]4C(C(=O)OC)=CO[C@H](O[C@@H]12)[C@@H]43	11.1	3.64 µM	1.97		5.36	2.19	6.37	3.4											
CC(CNc1nc(Nc2ccc(Cl)c(Cl)c2)nc(C(Cl)(Cl)Cl)n1)N(C)C (stereo not drawn)		4.62 µM			3.51			4.58	4.44			1.99	1.8	1.85	1.91				
Cc1ccc(C(=O)N/N=C(\N=Nc2ccccc2)c2ccc(N(CCC#N)CCC#N)cc2C)cc1	> 100	> 100 µM			> 100	61.3	> 100	> 100	> 100	> 100									
CC(=O)Oc1cc2c(n(C)c1=O)CCC2	> 100	> 100 µM	> 100		> 100		> 100												
O=c1ccc2nc3ccc(O)cc3oc-2c1	> 100	> 100 µM	> 100	3.43	> 100	> 73.5	> 100	30.8	> 100										
CC1CC(c2ccc([N+](=O)[O-])cc2)=Nc2ccccc2S1=O (stereo not drawn)	41.4	60.9 µM	4.72		80.4	25.9		31.9		76.6									
Cn1c2c(c3c(=O)[nH]ncc31)CCCc1ccccc1-2	> 100	> 100 µM	> 100		86	38.3	> 100	40.2	> 100	51.8									
COC(=O)c1ccccc1Nc1ccccc1C(=O)OC	> 100	> 100 µM	> 100	> 100	71.6	> 100	> 100	> 100	> 100										
Nc1nc2c(ncn2CC(CO)CC(c2ccccc2)P(=O)(O)O)c(=O)[nH]1 (stereo not drawn)	> 100	> 100 µM	> 100		> 100	> 100		> 100		> 100									
CCN1CCC(O)(/C=C/c2ccc(Cl)cc2)C(C(=O)/C=C/c2ccc(Cl)cc2)C1 (stereo not drawn)	92.5	> 100 µM	13.4		43.6	81.5				> 100									
COC(=O)/C=C/N1CC1	> 10	> 10 µM	> 10		> 10	> 10	> 10	> 10	> 10	> 10									
NC1=CN(Cc2ccccc2)C2=N/C(=C\c3ccco3)C(=O)N12	> 100	> 100 µM	> 100	> 100	> 100	> 100	> 100		> 100										
OCC1(CNc2cc(Cl)ncn2)CCC1	> 100	> 100 µM	> 100	> 100	> 100	> 100	> 100	> 100		> 100									
N#C/C=C\c1ccc(-c2cc(C(F)(F)F)cc(C(F)(F)F)c2)o1	> 100	> 100 µM	> 100	71.6	> 100	> 100	> 100	> 100		40.7									
NC(=O)N/N=C/c1ccccc1O		> 100 µM	> 100		> 100		> 100	> 100	> 100	> 100									

Compound	TGI (A549 NSCLC) [µM]	TGI (EKVX NSCLC)	TGI (HCT-116 colon) [µM]	TGI (MDA-N) [µM]	TGI (NCI-H226 lung) [µM]	TGI (NCI-H522 lung) [µM]	TGI (NCI/ADR-RES ovarian) [µM]	TGI (RPMI-8226 leukemia) [µM]	TGI (T-47D breast) [µM]	TGI (SR leukemia) [µM]	GI50 (NCI/ADR-RES ovarian) [µM]	GI50 (EKVX NSCLC) [µM]	GI50 (NCI-H226 lung) [µM]	GI50 (RPMI-8226 leukemia) [µM]	GI50 (T-47D breast) [µM]	GI50 (A549 NSCLC) [µM]	GI50 (HCT-116 colon) [µM]	GI50 (NCI-H522 lung) [µM]	GI50 (SR leukemia) [µM]
Cc1cccc2c(=O)c3c(O)cc4c(c3n(C)c12)C=CC(C)(C)O4	> 100	> 100 µM	> 100	> 100	> 100	> 100	> 100	66.5		54.6									
C[C@]12CC[C@H]3[C@@H](CCC4=CC(=O)CC[C@@]43C)[C@@H]1CC[C@@H]2OC(=O)c1cccc2c(=O)c3ccccc3[nH]c12	> 100	> 100 µM		> 100	> 100	> 100	> 100	87.7	> 100										
Cc1ccc(S(=O)(=O)NC(=O)NCC(=O)O)cc1	> 100		> 100	> 100		> 100	> 100	> 100	> 100										
CC(C)(C)c1cc2c(O)c(c1)COCc1cc(C(C)(C)C)cc(c1O)COCc1cc(C(C)(C)C)cc(c1O)COC2	> 100	> 100 µM	> 100		> 100		> 100	> 100	> 100	> 100									
NCCSc1nc(N)c2ncn(C3OC(CO)C(O)C3O)c2n1 (stereo not drawn)	> 100		> 100		> 100	> 100		> 100		> 100									
CCCC(=O)Oc1cc(OC(=O)CCC)c2c(C)cc(=O)oc2c1	> 100	> 100 µM	> 100	> 100	> 100		> 100	> 100		76.9									
N#CCCN(CCC#N)c1ccc(/C=C2\N=C(c3ccccc3)N(c3ccccc3)C2=O)cc1	> 100	> 100 µM	> 100	> 100	> 100	> 100	> 100	> 100	> 100										
Cc1cc2nc3c(C#N)c4c(c(Nc5ccc(Cl)cc5)n3c2cc1C)CCC4		> 100 µM	30.4		64.7	26.5	48.1	32.7	86.3										
COc1ccc(/C=C/C(=O)/C=C(/C=C/c2ccc(OC)c(OC)c2OC)OB(F)F)c(OC)c1OC	> 100	> 100 µM	3.33			4.62	> 100	2.77	> 100	> 100	3.28	2.96		0.466	3.62	3.44	0.399	1.35	0.278
CCCCn1c2c(n(CCCC)c1=[Se])-c1c(n(CCCC)c(=[Se])n1CCCC)S[Se][Se]S2	> 61.3	> 100 µM	> 56.2	> 100	39	3.34	39.5	> 70		> 100									
CC(C)[C@H]1NC(=O)[C@H]2N=C(O[C@@H]2C)[C@@H]2CCCN2C(=O)[C@H](Cc2ccccc2)NC(=O)[C@@H]2COC(=N2)[C@@H](Cc2ccccc2)NC(=O)[C@@H]2COC1=N2	> 100	> 100 µM	> 100	> 100	> 100	> 100	> 100	> 100	> 100										
O=c1[nH]c(Br)nc2c(N3CCCCC3)c[nH]c12	> 100	> 100 µM	> 100		> 100	81.8		> 100											
CCC(C)C1NC(=O)C(NC(=O)c2c3nc4c(C(=O)NC5C(=O)NC(C(C)C)C(=O)N6CCCC6C(=O)N(C)CC(=O)N(C)C(C(C)C)C(=O)OC5C)ccc(C)c4oc-3c(C)c(=O)c2N)C(C)OC(=O)C(C(C)C)N(C)C(=O)CN(C)C(=O)C2CCCN2C1=O (stereo not drawn) (I: TIP[Sar][NMeV] / II: TVP[Sar][NMeV]; ester I:1-I:C, II:1-II:C; linker I:N-II:N via Actinocin(1to9); configuration not given here)	13.9	0.179 µM and 0.0919 µM	4.8	0.0244	0.153	0.0158	3.56	0.0323		0.404	0.0239								
C#CC1(O)CC(c2ccccc2)N(C)C(c2ccccc2)C1 (stereo not drawn)	> 100	> 100 µM	32.4		> 100	> 100													
CC1CC/C(=C\c2ccc(F)cc2)C2=C1C(c1ccc(F)cc1)n1c(s/c(=C\c3ccc(Cl)cc3)c1=O)=N2 (stereo not drawn)	> 100	> 100 µM	> 100	> 100				> 100											
O=c1[nH]c(=S)c2[nH]c(=O)n(-c3ccccc3)c2[nH]1	> 100	> 100 µM	> 100	> 100	> 100	> 100	> 100			> 100									
CC(=O)Nc1nc(C)c(-c2cc3c(c(S(C)(=O)=O)c2)C(=O)N([C@@H](C)C2CC2)C3)s1	> 100	79.9 µM	> 100		> 100	> 100	> 100	52.9	45	> 100	53.6	18.3	28.7	17.6	10.7	28	28.3	25.4	26.8
COc1cc(OC)cc(Oc2nc3c(N)cc(C(F)(F)F)cc3nc2-c2ccccc2)c1		> 100 µM	> 100		> 100		> 100	77.7	8.91	75.7									
COc1ccc(-c2c(C#N)cnc(N)c2-c2nc3cc(C)c(C)cc3[nH]2)cc1	72.4	> 100 µM	> 100		> 100	54.7	> 100	> 100	> 100	> 100	6.84	15.8	16.4	32.5	15.4	6.54	4.63	4.74	5.64
Cc1ccc(C(=O)C(C)N)cc1C (stereo not drawn)	> 100	> 100 µM	> 100		> 100	> 100		> 100											
O=Cc1ccc2[nH]c(=O)oc2c1		> 100 µM	> 100	> 100	> 100		> 100	> 100		> 100									
CCc1ncc(C(C)(O)c2ccccc2)n1Cc1ccccc1 (stereo not drawn)	> 100	> 100 µM	11		> 100	> 100	> 100	> 100	> 100	44.1									
